From publication doi:10.1101/2023.03.24.534094v2 (biorxiv, 2023)
Like-named read-outs stand apart in the source and are kept apart here. Values belong to the compound of their own block, whether it stands above or below them.

Experiments:
Test in all cases: biochemical
PHKG2 = biological target: T1, PHKG2 (Homo sapiens, UniProt P15735)
T1 sequence (P15735 1-406): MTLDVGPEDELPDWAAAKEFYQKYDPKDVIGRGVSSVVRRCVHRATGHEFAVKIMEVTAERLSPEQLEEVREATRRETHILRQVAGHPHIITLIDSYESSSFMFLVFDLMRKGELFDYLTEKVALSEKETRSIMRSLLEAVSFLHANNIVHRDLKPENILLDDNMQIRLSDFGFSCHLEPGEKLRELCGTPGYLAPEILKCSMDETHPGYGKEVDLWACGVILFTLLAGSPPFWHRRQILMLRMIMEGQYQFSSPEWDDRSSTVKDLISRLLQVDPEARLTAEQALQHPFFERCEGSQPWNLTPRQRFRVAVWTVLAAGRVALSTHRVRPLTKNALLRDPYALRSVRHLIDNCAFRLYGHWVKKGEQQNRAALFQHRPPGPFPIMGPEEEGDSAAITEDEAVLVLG

DYRK1A = DYRK1A (Homo sapiens, UniProt Q13627)
BMPR2 = biological target: T2, BMPR2 (Homo sapiens, UniProt Q13873)
T2 sequence (Q13873 1-1038): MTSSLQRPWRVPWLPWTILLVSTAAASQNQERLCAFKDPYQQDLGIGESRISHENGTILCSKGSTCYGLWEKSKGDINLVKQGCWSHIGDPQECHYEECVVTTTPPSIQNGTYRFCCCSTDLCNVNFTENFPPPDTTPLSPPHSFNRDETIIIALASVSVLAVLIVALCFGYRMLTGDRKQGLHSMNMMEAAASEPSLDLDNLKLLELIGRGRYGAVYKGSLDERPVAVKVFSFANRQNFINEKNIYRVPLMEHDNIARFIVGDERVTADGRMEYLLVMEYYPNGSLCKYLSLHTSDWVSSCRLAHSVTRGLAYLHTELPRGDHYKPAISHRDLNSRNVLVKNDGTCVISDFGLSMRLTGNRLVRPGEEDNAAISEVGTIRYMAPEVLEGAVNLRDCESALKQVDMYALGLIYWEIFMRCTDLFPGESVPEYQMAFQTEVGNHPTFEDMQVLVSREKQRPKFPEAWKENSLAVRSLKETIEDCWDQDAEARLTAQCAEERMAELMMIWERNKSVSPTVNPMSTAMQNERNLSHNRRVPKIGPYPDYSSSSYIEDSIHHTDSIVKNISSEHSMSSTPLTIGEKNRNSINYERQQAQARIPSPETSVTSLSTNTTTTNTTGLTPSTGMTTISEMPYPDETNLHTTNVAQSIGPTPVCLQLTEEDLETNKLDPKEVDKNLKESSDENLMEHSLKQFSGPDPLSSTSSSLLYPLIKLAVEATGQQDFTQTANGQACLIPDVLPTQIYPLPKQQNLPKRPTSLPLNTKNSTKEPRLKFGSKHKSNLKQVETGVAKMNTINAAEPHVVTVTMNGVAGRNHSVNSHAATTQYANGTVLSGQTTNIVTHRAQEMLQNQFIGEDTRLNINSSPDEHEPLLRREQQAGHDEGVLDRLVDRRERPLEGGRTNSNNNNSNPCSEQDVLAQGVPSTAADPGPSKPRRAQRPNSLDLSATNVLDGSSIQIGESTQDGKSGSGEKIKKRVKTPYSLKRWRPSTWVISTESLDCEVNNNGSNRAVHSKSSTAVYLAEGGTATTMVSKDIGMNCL

Erk7 = biological target: T3, Erk7 (Homo sapiens, UniProt Q8TD08)
T3 sequence (Q8TD08 1-544): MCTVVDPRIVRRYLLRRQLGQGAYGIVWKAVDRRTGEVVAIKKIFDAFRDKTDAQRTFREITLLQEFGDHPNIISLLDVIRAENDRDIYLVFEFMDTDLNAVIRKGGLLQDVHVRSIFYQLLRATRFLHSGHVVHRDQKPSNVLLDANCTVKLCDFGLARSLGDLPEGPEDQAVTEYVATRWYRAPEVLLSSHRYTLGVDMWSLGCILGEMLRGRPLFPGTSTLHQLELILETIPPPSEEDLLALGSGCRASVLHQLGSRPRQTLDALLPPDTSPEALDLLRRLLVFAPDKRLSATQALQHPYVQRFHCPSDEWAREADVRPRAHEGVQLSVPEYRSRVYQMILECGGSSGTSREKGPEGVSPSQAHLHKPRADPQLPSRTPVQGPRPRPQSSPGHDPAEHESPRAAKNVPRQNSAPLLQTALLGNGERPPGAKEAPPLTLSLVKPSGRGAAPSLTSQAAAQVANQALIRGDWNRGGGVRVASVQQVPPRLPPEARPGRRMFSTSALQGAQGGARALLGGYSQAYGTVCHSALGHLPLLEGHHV

GPRK5 = GPRK5 (Homo sapiens, UniProt P34947)
Sequence of GPRK5 (P34947 whole entry): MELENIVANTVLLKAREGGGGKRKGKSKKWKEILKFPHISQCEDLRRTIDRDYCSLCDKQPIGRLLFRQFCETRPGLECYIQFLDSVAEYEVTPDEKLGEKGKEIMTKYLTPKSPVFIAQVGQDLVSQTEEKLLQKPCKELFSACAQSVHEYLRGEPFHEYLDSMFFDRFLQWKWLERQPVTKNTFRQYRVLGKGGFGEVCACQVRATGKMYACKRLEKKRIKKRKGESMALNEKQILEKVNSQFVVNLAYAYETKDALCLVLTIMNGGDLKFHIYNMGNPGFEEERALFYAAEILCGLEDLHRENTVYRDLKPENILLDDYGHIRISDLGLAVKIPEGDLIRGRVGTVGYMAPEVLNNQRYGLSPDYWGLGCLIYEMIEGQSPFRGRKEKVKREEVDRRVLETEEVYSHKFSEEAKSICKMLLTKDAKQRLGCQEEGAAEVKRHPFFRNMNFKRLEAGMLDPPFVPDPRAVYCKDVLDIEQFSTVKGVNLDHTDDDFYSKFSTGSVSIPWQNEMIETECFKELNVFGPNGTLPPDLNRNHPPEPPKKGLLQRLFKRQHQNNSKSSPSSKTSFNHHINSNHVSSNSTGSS

SMILES: CNc1ncc2cc(-c3cc(C(F)(F)F)ccc3Cl)c(=O)n(CCCCN)c2n1 [compound 9, 8-(4-Aminobutyl)-6-(2-chloro-5-(trifluoromethyl)phenyl)-2-(methylamino)pyrido[2,3-d]pyrimidin-7(8H)-one]
ΔTm at 10 µM (PHKG2; read-out: dTm 9): 0.5 °C | ΔTm at 10 µM (DYRK1A; read-out: dTm 9): -0.5 °C | ΔTm at 10 µM (BMPR2; read-out: dTm 9): 0.1 °C | ΔTm at 10 µM (Erk7; read-out: dTm 9): 0.1 °C | ΔTm at 10 µM (GPRK5; read-out: dTm 9): 0.3 °C

SMILES: CNc1ncc2cc(-c3cc(Cl)ccc3Cl)c(=O)n(CCCCN)c2n1 [compound 8, 8-(4-Aminobutyl)-6-(2,5-dichlorophenyl)-2-(methylamino)pyrido[2,3-d]pyrimidin-7(8H)-one]
ΔTm at 10 µM (PHKG2; read-out: dTm 8): 1.5 °C | ΔTm at 10 µM (DYRK1A; read-out: dTm 8): -0.5 °C | ΔTm at 10 µM (BMPR2; read-out: dTm 8): 0.2 °C | ΔTm at 10 µM (Erk7; read-out: dTm 8): 0.3 °C | ΔTm at 10 µM (GPRK5; read-out: dTm 8): 0.6 °C

SMILES: CNc1ncc2cc(-c3cc(Cl)ccc3Br)c(=O)n(CCCCN)c2n1 [compound 10, 8-(4-Aminobutyl)-6-(2-bromo-5-chlorophenyl)-2-(methylamino)pyrido[2,3-d]pyrimidin-7(8H)-one]
ΔTm at 10 µM (PHKG2; read-out: dTm 10): 1.3 °C | ΔTm at 10 µM (DYRK1A; read-out: dTm 10): -0.6 °C | ΔTm at 10 µM (BMPR2; read-out: dTm 10): 0 °C | ΔTm at 10 µM (Erk7; read-out: dTm 10): 0.3 °C | ΔTm at 10 µM (GPRK5; read-out: dTm 10): 0.6 °C

More lines, main results first:

ΔTm at 10 µM (PHKG2; read-out: dTm 11): 0.6 °C | ΔTm at 10 µM (DYRK1A; read-out: dTm 11): -0.3 °C | ΔTm at 10 µM (BMPR2; read-out: dTm 11): 0 °C | ΔTm at 10 µM (GPRK5; read-out: dTm 11): 0.7 °C
SMILES: CNc1ncc2cc(-c3cc(Br)ccc3Br)c(=O)n(CCCCN)c2n1 [compound 11, 8-(4-Aminobutyl)-6-(2,5-dibromophenyl)-2-(methylamino)pyrido[2,3-d]pyrimidin-7(8H)-one]
ΔTm at 10 µM (Erk7; read-out: dTm 11): 0.3 °C

ΔTm at 10 µM (PHKG2; read-out: dTm 12): 1.5 °C | ΔTm at 10 µM (DYRK1A; read-out: dTm 12): 0.1 °C | ΔTm at 10 µM (BMPR2; read-out: dTm 12): -0.2 °C | ΔTm at 10 µM (GPRK5; read-out: dTm 12): -0.4 °C
SMILES: CNc1ncc2cc(-c3cc(F)c(-c4cccc(C)n4)cc3F)c(=O)n(CCCCN)c2n1 [compound 12, 8-(4-Aminobutyl)-6-(2,5-difluoro-4-(6-methylpyridin-2-yl)phenyl)-2-(methylamino)pyrido[2,3-d]pyrimidin-7(8H)-one]
ΔTm at 10 µM (Erk7; read-out: dTm 12): -1.3 °C
